The results in this text go back to patent EP4596574A1, “GLP-1/GCG/GIP TRIPLE-RECEPTOR AGONIST AND USE THEREOF” (Sunshine Lake Pharma Co., Ltd., priority 2022, dated 2024).

What all share (format): cell-based
One assay addresses T1, GCGR (Homo sapiens, UniProt P47871).
T1 construct: expressed in transfected cells; host or cells: HEK293 (HEK293-GCGR)
Description: In vitro cell activity, cAMP production in HEK293 cells expressing GCGR. Particulars: HEK293-GCGR cells, cAMP; read-out: GCGR (EC50). On the procedure:
(§1) After they were completely thawed within 1.5 minutes, the cells were added dropwise into a 15 mL centrifuge tube containing 8 mL of warm culture medium in a clean bench. The tubes were centrifuged at 900 rpm for 5 minutes, the supernatant was discarded, and the cells were resuspended in 1 mL of complete culture medium (by pipetting 15 times). 20 µL of the suspension was immediately taken and mixed with an equal volume of trypan blue. 20 µL was taken to count the number of live cells, and the cells were diluted to 4×10^5 cells/mL with complete culture medium. • 4) The 384-well plate was divided into GLP-1R cell, GCGR cell and GIPR cell areas. The cell suspension was added to the wells of the corresponding area at 5 µL per well using a 12-channel variable-channel adjustable dispenser. […] Then, the diluted cAMP-d2 working solution and anti-cAMP-crytate working solution were mixed evenly in a ratio of 1:1, and 10 µL was added to each well of the sample group. The wells were covered with white lids and placed at room temperature in the dark for 1 hour or at 4 °C overnight. • 6) The fluorescence values at 665 nm and 620 nm were detected in a multifunctional microplate reader. In GraphPad Prism 6, the signal ratio and sample concentration were nonlinearly fitted using a four-parameter equation to obtain the EC50 value.
Background: cAMP levels reflect the balance of adenylyl cyclase and phosphodiesterase activity.

A further assay has as its target T2, GIPR (Homo sapiens, UniProt P48546).
T2 construct: expressed in transfected cells; host or cells: HEK293 (HEK293-GIPR)
T2 sequence (P48546 22-466): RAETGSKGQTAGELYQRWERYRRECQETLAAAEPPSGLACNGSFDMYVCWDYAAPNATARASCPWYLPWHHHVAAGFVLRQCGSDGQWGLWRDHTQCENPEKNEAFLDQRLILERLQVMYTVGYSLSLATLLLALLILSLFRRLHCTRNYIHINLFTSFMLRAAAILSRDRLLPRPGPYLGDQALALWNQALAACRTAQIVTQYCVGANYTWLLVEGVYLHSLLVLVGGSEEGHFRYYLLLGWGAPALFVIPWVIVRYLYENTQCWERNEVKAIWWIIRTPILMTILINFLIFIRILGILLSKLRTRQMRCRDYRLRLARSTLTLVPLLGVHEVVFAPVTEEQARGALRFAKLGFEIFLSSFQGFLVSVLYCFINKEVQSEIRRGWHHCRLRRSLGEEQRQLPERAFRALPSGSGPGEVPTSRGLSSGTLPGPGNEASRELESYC
Description: In vitro cell activity, cAMP production in HEK293 cells expressing GIPR. Particulars: HEK293-GIPR cells, cAMP; read-out: GIPR (EC50). On the procedure:
as §1, with “The wells were covered with white lids and placed at room temperature in the dark for 1 hour or at 4 °C overnight. • 6) The fluorescence values at 665 nm and 620 nm were detected in a multifunctional microplate reader.” left out

The target of another assay is T3, GLP-1R (Homo sapiens, UniProt P43220).
T3 construct: expressed in transfected cells; host or cells: HEK293 (HEK293-GLP-1R)
T3 sequence (P43220 24-463, species assumed): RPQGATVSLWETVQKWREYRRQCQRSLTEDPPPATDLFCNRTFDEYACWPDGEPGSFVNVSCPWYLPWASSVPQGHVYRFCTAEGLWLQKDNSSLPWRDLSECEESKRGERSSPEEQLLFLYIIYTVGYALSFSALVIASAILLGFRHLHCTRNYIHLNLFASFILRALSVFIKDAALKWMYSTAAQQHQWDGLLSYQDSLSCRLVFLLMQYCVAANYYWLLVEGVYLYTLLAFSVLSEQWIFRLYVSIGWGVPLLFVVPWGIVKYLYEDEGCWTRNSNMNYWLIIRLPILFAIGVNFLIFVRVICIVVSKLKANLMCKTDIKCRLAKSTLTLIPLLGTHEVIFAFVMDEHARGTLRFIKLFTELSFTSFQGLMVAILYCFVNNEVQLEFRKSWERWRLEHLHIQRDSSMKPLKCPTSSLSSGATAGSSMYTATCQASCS
As to the kind of experiment: In vitro cell activity, cAMP production in HEK293 cells expressing GLP-1R. Particulars: HEK293-GLP-1R cells, cAMP; read-out: GLP-1R (EC50). On the procedure:
as §1

Each structure is given as a SMILES string. Starred links: 1 amine or outer side, 2 acyl side, 3 side chain; linkers in the order of their positions; H or OH if unused. Non-standard residues stand in square brackets, D forms with d. Residues, ends and D or L forms follow the SMILES beside them. Groups on a side chain read outwards from the residue. *: point of attachment. C20 diacid = O=C(O)CCCCCCCCCCCCCCCCCCC(=O)*; C18 diacid = O=C(O)CCCCCCCCCCCCCCCCC(=O)*; αMePhe(2-F) = C[C@](N)(Cc1ccccc1F)C(=O)O; γGlu = O=C(O)[C@H](CCC(=O)[*:2])N[*:1]; AEEA = NCCOCCOCC(=O)O; Aib = CC(C)(N)C(=O)O

T1 sequence (P47871 26-477, species assumed): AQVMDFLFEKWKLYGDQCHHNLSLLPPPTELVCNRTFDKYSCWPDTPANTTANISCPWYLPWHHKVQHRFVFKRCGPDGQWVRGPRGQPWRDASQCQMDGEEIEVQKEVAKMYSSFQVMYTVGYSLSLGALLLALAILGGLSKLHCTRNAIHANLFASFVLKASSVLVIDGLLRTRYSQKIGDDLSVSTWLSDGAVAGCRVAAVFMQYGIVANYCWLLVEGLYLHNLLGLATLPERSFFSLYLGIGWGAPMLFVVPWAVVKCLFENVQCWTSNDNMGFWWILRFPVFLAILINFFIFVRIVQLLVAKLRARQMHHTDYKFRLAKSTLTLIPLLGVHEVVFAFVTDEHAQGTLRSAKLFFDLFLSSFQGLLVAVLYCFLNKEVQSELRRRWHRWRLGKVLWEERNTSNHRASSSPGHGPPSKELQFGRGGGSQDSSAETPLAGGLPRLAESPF

As for `CC[C@H](C)[C@H](NC(=O)[C@H](CCC(=O)O)NC(=O)[C@H](CC(=O)O)NC(=O)[C@H](CC(C)C)NC(=O)[C@H](CC(C)C)NC(=O)[C@@H](NC(=O)[C@H](CO)NC(=O)[C@H](Cc1ccc(O)cc1)NC(=O)[C@H](CC(=O)O)NC(=O)[C@H](CO)NC(=O)[C@@H](NC(=O)[C@](C)(Cc1ccccc1F)NC(=O)[C@@H](NC(=O)CNC(=O)[C@H](CCC(N)=O)NC(=O)C(C)(C)NC(=O)[C@@H](N)Cc1ccc(O)cc1)[C@@H](C)O)[C@@H](C)O)[C@@H](C)CC)C(=O)N[C@@H](C)C(=O)N[C@@H](CCC(N)=O)C(=O)N[C@@H](CCCCNC(=O)COCCOCCNC(=O)COCCOCCNC(=O)CC[C@H](NC(=O)CCCCCCCCCCCCCCCCCCC(=O)O)C(=O)O)C(=O)N[C@@H](C)C(=O)N[C@@H](Cc1ccccc1)C(=O)N[C@H](C(=O)N[C@@H](CCC(N)=O)C(=O)N[C@@H](Cc1c[nH]c2ccccc12)C(=O)N[C@@H](CC(C)C)C(=O)N[C@H](C(=O)N[C@@H](C)C(=O)NCC(=O)NCC(=O)N1CCC[C@H]1C(=O)N[C@@H](CO)C(=O)N[C@@H](CO)C(=O)NCC(=O)N[C@@H](C)C(=O)N1CCC[C@H]1C(=O)N1CCC[C@H]1C(=O)N1CCC[C@H]1C(=O)N[C@@H](CO)C(=O)O)[C@@H](C)CC)C(C)C` [HEC-PT100] (H-Y[Aib]QGT[αMePhe(2-F)]TSDYSILLDEIAQK([AEEA-AEEA-γGlu-C20 diacid])AFVQWLIAGGPSSGAPPPS-OH), the EC50 was determined as 9.58 nM on GCGR, 0.0518 nM on GIPR and 0.0978 nM at GLP-1R.
The corresponding values for `CC[C@H](C)[C@H](NC(=O)[C@H](Cc1ccccc1)NC(=O)[C@H](CC(=O)O)NC(=O)[C@H](CCCNC(=N)N)NC(=O)[C@H](CCC(N)=O)NC(=O)[C@H](C)NC(=O)[C@H](CCCCNC(=O)COCCOCCNC(=O)CC[C@H](NC(=O)CCCCCCCCCCCCCCCCCCC(=O)O)C(=O)O)NC(=O)[C@H](CCC(=O)O)NC(=O)[C@H](CC(=O)O)NC(=O)[C@H](CC(C)C)NC(=O)[C@H](CC(C)C)NC(=O)[C@@H](NC(=O)[C@H](CO)NC(=O)[C@H](Cc1ccc(O)cc1)NC(=O)[C@H](CC(=O)O)NC(=O)[C@H](CO)NC(=O)[C@@H](NC(=O)[C@](C)(Cc1ccccc1F)NC(=O)[C@@H](NC(=O)CNC(=O)[C@H](CCC(N)=O)NC(=O)C(C)(C)NC(=O)[C@@H](N)Cc1ccc(O)cc1)[C@@H](C)O)[C@@H](C)O)[C@@H](C)CC)C(=O)N[C@@H](CCC(=O)O)C(=O)N[C@@H](Cc1c[nH]c2ccccc12)C(=O)N[C@@H](CC(C)C)C(=O)N[C@@H](CC(C)C)C(=O)N[C@@H](CCC(=O)O)C(=O)NCC(=O)NCC(=O)N1CCC[C@H]1C(=O)N[C@@H](CO)C(=O)N[C@@H](CO)C(=O)NCC(=O)N[C@@H](C)C(=O)N1CCC[C@H]1C(=O)N1CCC[C@H]1C(=O)N1CCC[C@H]1C(=O)N[C@@H](CO)C(=O)O` [HEC-PT64] are 3.57 nM, 0.248 nM and 0.6 nM.
On to `CC[C@H](C)[C@H](NC(=O)[C@H](CO)NC(=O)[C@H](Cc1ccc(O)cc1)NC(=O)[C@H](CC(=O)O)NC(=O)[C@H](CO)NC(=O)[C@@H](NC(=O)[C@](C)(Cc1ccccc1F)NC(=O)[C@@H](NC(=O)CNC(=O)[C@H](CCC(N)=O)NC(=O)C(C)(C)NC(=O)[C@@H](N)Cc1ccc(O)cc1)[C@@H](C)O)[C@@H](C)O)C(=O)N[C@@H](CC(C)C)C(=O)N[C@@H](CCCCNC(=O)COCCOCCNC(=O)CC[C@H](NC(=O)CCCCCCCCCCCCCCCCC(=O)O)C(=O)O)C(=O)N[C@@H](CC(=O)O)C(=O)N[C@@H](CCCNC(=N)N)C(=O)N[C@@H](CCCNC(=N)N)C(=O)N[C@@H](C)C(=O)N[C@@H](CCC(N)=O)C(=O)N[C@@H](CCC(N)=O)C(=O)N[C@@H](C)C(=O)N[C@@H](Cc1ccccc1)C(=O)N[C@H](C(=O)N[C@@H](CCC(=O)O)C(=O)N[C@@H](Cc1ccc(O)cc1)C(=O)N[C@@H](CC(C)C)C(=O)N[C@@H](CC(C)C)C(=O)N[C@@H](C)C(=O)NCC(=O)NCC(=O)N1CCC[C@H]1C(=O)N[C@@H](CO)C(=O)N[C@@H](CO)C(=O)NCC(=O)N[C@@H](C)C(=O)N1CCC[C@H]1C(=O)N1CCC[C@H]1C(=O)N1CCC[C@H]1C(=O)N[C@@H](CO)C(=O)O)C(C)C` [HEC-PT148] (H-Y[Aib]QGT[αMePhe(2-F)]TSDYSILK([AEEA-γGlu-C18 diacid])DRRAQQAFVEYLLAGGPSSGAPPPS-OH), for which the EC50 at GCGR was found to be 0.162 nM; on GIPR it was 0.312 nM; at GLP-1R, 0.0741 nM.
On the same counts, the results for `CC[C@H](C)[C@H](NC(=O)[C@H](Cc1ccccc1)NC(=O)[C@H](C)NC(=O)C(C)(C)NC(=O)[C@H](CCC(N)=O)NC(=O)[C@H](CCCNC(=N)N)NC(=O)[C@@H](NC(=O)[C@H](CCCCN)NC(=O)[C@H](CC(=O)O)NC(=O)[C@H](CCCCNC(=O)COCCOCCNC(=O)CC[C@H](NC(=O)CCCCCCCCCCCCCCCCC(=O)O)C(=O)O)NC(=O)[C@H](CC(C)C)NC(=O)[C@@H](NC(=O)[C@H](CO)NC(=O)[C@H](Cc1ccc(O)cc1)NC(=O)[C@H](CC(=O)O)NC(=O)[C@H](CO)NC(=O)[C@@H](NC(=O)[C@](C)(Cc1ccccc1F)NC(=O)[C@@H](NC(=O)CNC(=O)[C@H](CCC(N)=O)NC(=O)C(C)(C)NC(=O)[C@@H](N)Cc1ccc(O)cc1)[C@@H](C)O)[C@@H](C)O)[C@@H](C)CC)[C@@H](C)CC)C(=O)N[C@@H](CCC(=O)O)C(=O)N[C@@H](Cc1ccc(O)cc1)C(=O)N[C@@H](CC(C)C)C(=O)N[C@@H](CC(C)C)C(=O)N[C@@H](CCC(=O)O)C(=O)NCC(=O)NCC(=O)N1CCC[C@H]1C(=O)N[C@@H](CO)C(=O)N[C@@H](CO)C(=O)NCC(=O)N[C@@H](C)C(=O)N1CCC[C@H]1C(=O)N1CCC[C@H]1C(=O)N1CCC[C@H]1C(=O)N[C@@H](CO)C(N)=O` [HEC-PT144] are 0.0366 nM, 0.0221 nM and 0.173 nM.
With `CC[C@H](C)[C@H](NC(=O)[C@H](CO)NC(=O)[C@H](Cc1ccc(O)cc1)NC(=O)[C@H](CC(=O)O)NC(=O)[C@H](CO)NC(=O)[C@@H](NC(=O)[C@](C)(Cc1ccccc1F)NC(=O)[C@@H](NC(=O)CNC(=O)[C@H](Cc1c[nH]cn1)NC(=O)C(C)(C)NC(=O)[C@@H](N)Cc1ccc(O)cc1)[C@@H](C)O)[C@@H](C)O)C(=O)N[C@@H](CC(C)C)C(=O)N[C@@H](CC(C)C)C(=O)N[C@@H](CC(=O)O)C(=O)N[C@@H](CCC(=O)O)C(=O)N[C@@H](CCCCNC(=O)COCCOCCNC(=O)CC[C@H](NC(=O)CCCCCCCCCCCCCCCCC(=O)O)C(=O)O)C(=O)N[C@@H](C)C(=O)N[C@@H](CCC(N)=O)C(=O)NC(C)(C)C(=O)N[C@@H](CCC(=O)O)C(=O)N[C@@H](Cc1ccccc1)C(=O)N[C@H](C(=O)N[C@@H](CCC(=O)O)C(=O)N[C@@H](Cc1c[nH]c2ccccc12)C(=O)N[C@@H](CC(C)C)C(=O)N[C@@H](CC(C)C)C(=O)N[C@@H](C)C(=O)NCC(=O)NCC(=O)N1CCC[C@H]1C(=O)N[C@@H](CO)C(=O)N[C@@H](CO)C(=O)NCC(=O)N[C@@H](C)C(=O)N1CCC[C@H]1C(=O)N1CCC[C@H]1C(=O)N1CCC[C@H]1C(=O)N[C@@H](CO)C(N)=O)[C@@H](C)CC` [HEC-PT107], the EC50 on GCGR stood at 3.56 nM; at GIPR, 0.079 nM; on GLP-1R, 0.267 nM.

As a reminder, the EC50 is the concentration that produces a half-maximal response.
